Measurements as given in patent US20160002240A1, “NUCLEOSIDE ANALOG SALTS WITH IMPROVED SOLUBILITY AND METHODS OF FORMING SAME” (THE BOARD OF TRUSTEES OF THE UNIVERSITY OF ALABAMA, priority 2013, published 2016).
“And” between values parts separate entries of the source, which are not always exact repeats. Equal entries are not always repeated. Where two headings read alike, the source gives them in different places. Marks after values point to notes of the source that are not given here.

How the values were obtained:
[1] = Thermogravimetric analysis (thermal stability); type: physicochemical; details: for T5%onset: Table 4, onset temperature of initial 5 wt % mass loss, nitrogen, 5° C./min
Protocol: TGA experiments were performed on a Mettler Toledo TGA/DSC1 Star unit under a stream of nitrogen. Samples (5-20 mg) were placed on a platinum pan and were heated from 25° C. to 800° C. with a constant heating rate of 5° C./min and with a 30 min isotherm at 75° C. to remove any remaining volatiles. Decomposition temperatures (T5% onset) were reported as the onset temperature with respect to the initial 5 wt % mass loss.

[2] = at 25° C.; cited from earlier work
[3] = Solubility in simulated biological fluids (PBS, SIF, SGF); details: for Solubility in PBS (pH = 7.4): phosphate buffer saline pH 7.4
Protocol: For all solvents used (water, Phosphate Buffer Solution (PBS), Simulated Gastric Fluid (SGF), Simulated Intestinal Fluid (SIF)) same amount of compound/solvent was used: 0.1 g compound/0.5 mL solvent. The solutions were stirred at room temperature for 24 h. The resulting suspensions were filtered through a 0.2 μm Teflon syringe filter to obtain clear solutions. […] Deuterated dmso (dmso-d6) containing 0.05% (v/v) TMS (as internal standard) was used to run the ^1H-NMR. 0.1 mL of the filtered solutions were combined with 0.4 mL dmso-d6 w/ 0.05% (v/v) TMS (corresponding to 1.836×10-6 mols TMS). The solubility values were determined from the molar ratio between the peaks corresponding to the compound and TMS.
Solubility experiments were conducted as described in example 12.

[4] = Solubility in deionized water, UV absorbance at 254 nm with calibration curve
Protocol: The UV-VIS spectra used for development of calibration curves and for determination of the solubility values were performed on a Varian CARY 3 UV-Visible Spectrophotometer.
After filtering through Teflon syringe filters 0.2 μm), UV was used to determine the absorbance at 254 nm. A calibration curve of the compound in water was used to determine the concentration.
In a vial, 5.500 g [Cho][Acy] was mixed with 2 mL DI H2O.
(§1) A calibration curve of the compound in water was used to determine the concentration.
In a vial, 0.500 g [N1,1,1,16][Acy] was suspended in 1 mL DI H2O. The mixture was stirred for 24 h at room temperature. […] After filtering through a Teflon syringe filter (0.2 μm), 0.1 mL solution was diluted to 25 mL with DI H2O and its absorbance at 254 nm was determined.
as §1
In a vial, 4.8 g [P4,4,4,4][Acy] was suspended in 2 mL DI H2O. The mixture was stirred for 24 h at room temperature.
In a vial, 0.150 g [Acy]HCl was suspended in 1 mL DI H2O. The mixture was stirred for 24 h at room temperature. […] After filtering, 0.1 mL solution was diluted to 25 mL with DI H2O and its absorbance was determined.
In a vial, 0.2 g [Acy][Doc] was suspended in 1.5 mL DI H2O. […] To about 0.3 mL of this emulsion, water was added dropwise (mixing well each time after water was added) until a more clear mixture was obtained. […] The mixture was sonicated for about 30 min; this process (add water, sonication) was repeated until a clear solution was obtained. 0.5 mL of the clear solution obtained was diluted to 50 mL with DI H2O and UV was used to determine the absorbance at 254 nm.
as §1

[5] = cited from earlier work
[6] = quantitative NMR, room temperature, 24 h
[7] = simulated intestinal fluid pH 6.8 without pancreatin, quantitative NMR

Compound | T5%onset [1] | Water solubility [4] | Water solubility mg/mL (g/L) [4] | Water solubility mol/L [4] | also measured
Nc1nc2c(ncn2COCCO)c(=O)[nH]1 [Acyclovir, reference compound] | 240 °C | 1.42 mg/mL | 1.42 mg/mL (g/L) | 0.0063 (0) mol/L | Water solubility, literature value [2]: 5.77 mM; Solubility in PBS (pH = 7.4) ([3]; determined using UV-Vis): 1.4^b mg ‘acyclovir’/mL; Solubility in PBS (pH = 7.4) [3, 6]: 1.5 mg ‘acyclovir’/mL; Solubility in SIF (pH = 6.8) [3, 7]: 2.22 mg ‘acyclovir’/mL; Oral bioavailability [5]: 10-20%
Nc1nc2c(ncn2COCCO)c(=O)[nH]1 [[Cho][Acy] (1)] [choline acyclovir] | 128 °C | 1019.42 mg/mL | 1019.42 mg/mL (g/L) | 3.1045 (81) mol/L | –
Cl.Nc1nc2c(ncn2COCCO)c(=O)[nH]1 [[H2Acy]Cl (6), acyclovir hydrochloride] | 156 °C | – | – | – | Solubility in SGF (pH = 1.2) ([3]; pH 1.2): 292.8 mg ‘acyclovir’/mL; Solubility in SIF (pH = 6.8) ([3]; pH 6.8): 167.0 mg ‘acyclovir’/mL
Nc1nc2c(ncn2COCCO)c(=O)[nH]1 [[H2Acy][Doc] (7)] [acyclovir docusate] | 122 °C | 8.48 mg/mL | 8.47 mg/mL (g/L) | 0.0131 (0) mol/L | Solubility in deionized water, average [4]: 8.46 mg/mL; Solubility in deionized water, single determination ([4]; room temperature, stirred 24 h (acyclovir overnight), individual replicate (1st, 2nd, 3rd)): 13.06 mM and 13.05 mM; Solubility in deionized water, average ([4]; room temperature, average of replicates, text of Examples): 13.06 mM
Nc1nc2c(ncn2COCCO)c(=O)[nH]1 [[N1,1,1,16][Acy] (3)] [trimethylhexadecylammonium acyclovir] | 150 °C | 252.18 mg/mL | 252.18 mg/mL (g/L) | 0.4957 (4) mol/L | –
Nc1nc2c(ncn2COCCO)c(=O)[nH]1 [[N4,4,4,1][Acy] (2)] [tributylmethylammonium acyclovir] | 115 °C | – | – | – | –
Nc1nc2c(ncn2COCCO)c(=O)[nH]1 [[N4,4,4,4][Acy] (5)] [tetrabutylammonium acyclovir] | 132 °C | – | – | – | Solubility in PBS (pH = 7.4) [3, 6]: 1.0 mg ‘acyclovir’/mL; Solubility in SIF (pH = 6.8) [3, 7]: 144.0 mg ‘acyclovir’/mL
Nc1nc2c(ncn2COCCO)c(=O)[nH]1 [[P4,4,4,4][Acy] (4)] [tetrabutylphosphonium acyclovir] | 221 °C | 803.89 mg/mL | 803.89 mg/mL (g/L) | 1.6622 (41) mol/L | T5% onset (onset for 5% decomposition from TGA) [1]: 221 °C
CC(C)[C@H](N)C(=O)OCCOCn1cnc2c(=O)[nH]c(N)nc21 [valacyclovir] | – | – | – | – | Oral bioavailability [5]: about 55%
acyclovir docusate [[H2Acy][Doc] (7)] | – | – | – | – | Stability of emulsion in water [4]: at least 48 h
